Laboratory results: article PMC5454592, “Pharmacological and Toxicological Properties of the Potent Oral γ-Secretase Modulator BPN-15606” (The Journal of Pharmacology and Experimental Therapeutics, 2017)

Experiments:
Aβ neuritic plaques = assay: Chronic repeat-dose efficacy in PSAPP transgenic mice (Thioflavin S plaque load); type: in vivo
Protocol: Thirty-five female double-transgenic mice, model presenilin amyloid precursor protein ([Jankowsky et al., 2004]), purchased from The Jackson Laboratory (Bar Harbor, ME) [B6.C3-Tg (APPswe, PSEN1dE9) 85Dbo/Mmjax, stock no. 0034829] and then bred in-house, were used in the study at 90 days of age. The mice were housed in a temperature-controlled room at a constant 22°C in a 12:12-hour light/dark cycle (lights off at 18:00), with food and water available ad libitum. Age-matched mice were housed by treatment group in groups of two to four per cage. All experimental procedures were reviewed and approved by Institutional Animal Care and Use Committee at University of California, San Diego. Subjects were randomly assigned to either the drug group (BPN-15606) or vehicle, with individual groups ranging from 9 to 10 mice. Mice were treated for 6 months with BPN-15606 at a dose of 10 mg/kg/d. For the drug administration, BPN-15606 was milled into standard rodent chow, processed by Research Diets (New Brunswick, NJ). All animals were weighed three times weekly to assess any adverse effects on normal weight gain during the 6-month treatment period. Food consumption was determined by weighing the metal cage, including the chow, to the nearest 0.1 g.
To determine Aβ fibril plaque load, floating coronal sections from AD and wild-type mice, n = 4 for each group, were washed in miliQ water and mounted on Fisherbrand Superfrost Plus microscope slides, before being processed for 1% (w/v) Thioflavin S staining. All images were taken with Leica (Mannheim, Germany) fluorescence microscope at 5× and with the same exposure across all images. The percent plaque within specified areas of a series of hippocampal and frontal cortex sections was quantified using ImageJ software from National Institutes of Health. Images were converted to 8-bit grayscale, and area of interest was traced and determined. Brightness and B/W threshold were adjusted appropriately and consistently across all images. The area of plaque particles within the area of interest was obtained, and the percent plaque was calculated. […]

HReN-mGAP AD ReN cells = assay: Three-dimensional human neural cell culture model of AD (MSD ELISA); type: cell-based; details: 70 nM
Protocol: HReN-mGAP AD ReN cell expression APP^Swedish/London and Presenilin 1^ΔE9 were previously described ([Choi et al., 2014]). The HReN-mGAP AD ReN cells were three-dimensional (3D)–differentiated for 7 weeks, as previously described ([Choi et al., 2014]). The cultures were then harvested and analyzed for the soluble (conditioned media) and insoluble Aβ40/42/38 and p-tau/tau levels, using Meso Scale Discovery electrochemiluminescence system. BPN-15606 (70 nM) and the same volume of DMSO controls were treated in the last 4 weeks. The potential toxicity of the drugs was monitored by CytoTox-ONE (lactate dehydrogenase) assay after 1 week of the treatments. At the end of the treatments, the soluble (media) and the insoluble fractions (5 M GuHCl-soluble extracts) were collected and analyzed for Aβ38, Aβ40, and Aβ42 with MSD enzyme-linked immunosorbent assay (ELISA; V-Plex 6E10 Aβ40/Aβ42/Aβ38 kit). The custom-made plates were used for detecting total tau (BT2; ThermoFisher Scientific, Sommerset, NJ) and pThr181 tau (At270; ThermoFisher Scientific, Sommerset, NJ). The insoluble fraction was dissolved in 5 M GuHCl, and pThr181 tau, total tau, Aβ40, Aβ42, and Aβ38 concentrations were determined by MSD ELISA. The levels of the control protein Tuj1 were determined by dot-blot analysis in the GuHCl lysates (data not shown).

[1] = 10 mg/kg/d in chow for 6 months
[2] = last 4 weeks of 7-week 3D culture, media

SMILES: COc1nc(-c2cc(C)c(N[C@@H](C)c3ccc(F)cc3)nn2)ccc1-n1cnc(C)c1 [BPN-15606, (S)-N-(1-(4-fluorophenyl)ethyl)-6-(6-methoxy-5-(4-methyl-1H-imidazol-1-yl)pyridin-2-yl)-4-methylpyridazin-3-amine]
- necropsy findings at end of study (Aβ neuritic plaques; 10 mg/kg/d for 6 months): no significant adverse findings
- accumulation of Aβ neuritic plaques in cortex (Thioflavin S, densitometry) (Aβ neuritic plaques; [1]): significantly reduced accumulation of Aβ neuritic plaques
- accumulation of Aβ neuritic plaques in hippocampus (Thioflavin S, densitometry) (Aβ neuritic plaques; [1]): significantly reduced accumulation of Aβ neuritic plaques
- soluble Aβ38 level (HReN-mGAP AD ReN cells; [2]): increasing
- soluble Aβ40 level (HReN-mGAP AD ReN cells; [2]): dramatically decreased
- soluble Aβ42/40 ratio (HReN-mGAP AD ReN cells; [2]): dramatically decreased
- soluble Aβ42 level (HReN-mGAP AD ReN cells; [2]): dramatically decreased
- insoluble Aβ40 level (HReN-mGAP AD ReN cells; 5 M GuHCl-soluble extracts): decreased
- insoluble Aβ42 level (HReN-mGAP AD ReN cells; 5 M GuHCl-soluble extracts): decreased
- insoluble pThr181 tau level (HReN-mGAP AD ReN cells; 5 M GuHCl-soluble extracts): decreased
- insoluble total tau level (HReN-mGAP AD ReN cells; 5 M GuHCl-soluble extracts): decreased
